Experiments:
[1] = tested on: cultured adult mouse cochlea; experiment: Hair cell regeneration in cultured adult wild-type mouse cochlea, reprogramming followed by ad-Atoh1 infection; assay type: cell-based; settings: for reprogramming and regeneration of hair cells with another HDAC inhibitor in the cocktail instead of VPA: TSA 82.5 nM, SAHA 2 μM, Belinostat 1 μM with LiCl, FSK, siFIR, siMxi1, after Ad-Atoh1 infection
Description: Different from the neonatal cochlear culture method, in which the cochleae were disassociated from the bone, adult mouse whole cochleae (4-6 weeks old) were dissected with the bone attached. The bulla was first removed from the skull and dipped in 75% ethanol for 3 minutes before being placed in HBSS. The vestibular region was also removed. Under a dissecting microscope, the middle ear, vessels and the debris were removed from the bulla. The bone covering the apical turn was removed, and round window and oval window membranes were opened to allow media exchange with the cochlear fluids. The ligament portion and Reissner's membrane at each end of the cochlea were also removed to facilitate the access of medium to the sensory epithelial region. The cochleae were maintained in DMEM/F12 (Invitrogen) supplemented with N2 and B27 (both from Invitrogen) for 14-18 days. Ad-Atoh1 ad-Atoh1-mCherry adenoviruses were purchased from the SignaGen Laboratories, Rockville, MD, with titers of 6×10^10 pfu/ml.
In the rtTA/tet-Myc/tet-NICD mouse model, cochleae were treated with Dox (Sigma, 2 μg/ml final concentration); In the Sox2/tdT/rtTA/tet-Myc/tet-NICD mouse model, cochleae were treated with Dox (Sigma, 2 μg/ml final concentration) and 4-Hydroxytamoxifen (Tm, Sigma) (20 ng/ml); in the rtTA/tet-Myc and rtTA/tet-Myc/Atoh1-GFP mouse models, cochleae were treated with Dox (Sigma, 2 μg/ml final concentration) and VPA (2 mM); in the Sox2/tdT/rtTA/tet-Myc mouse model, cochleae were treated with 4-Hydroxytamoxifen (20 ng/ml), Dox (Sigma, 2 μg/ml) and VPA (Sigma, 2 mM); in the rtTA/tet-NICD mouse model, cochleae were treated with Dox (Sigma, 2 μg/ml final concentration), LiCl (Sigma, 8 mM), FSK (Tocris Bioscience, 20 μM), siFIR (Santa Cruz Bio-technology, 0.02 μM), and siMxi1 (Santa Cruz Bio-technology, 0.02 μM); in the Sox2/tdT/rtTA/tet-NICD mouse model, cochleae were treated with 4-Hydroxytamoxifen (20 ng/ml), Dox (Sigma, 2 μg/ml final concentration), LiCl (8 mM), Forskolin (FSK) (20 μM), siFIR (Puf 60, Gene ID: 67959) […], and siMxi1 (Gene ID: 17859) (0.02 μM); in the Atoh1-GFP mouse model, cochleae were treated with VPA (2 mM), LiCl (8 mM), FSK […], siFIR (0.02 μM), and siMxi1 (0.02 μM) for 4 days, followed by ad-Atoh1 (6×10^10 pfu/ml) infection overnight. siRNAs were delivered following the manufacturer's instructions (Polyplus-transfection; 89129-920). In cultured adult mouse cochleae, they were treated with HDAC inhibitor, Belinostat (1 μM, Medchemexpress), Trichostatin A (TSA)(82.5 nM, Medchemexpress), Vorinostat (SAHA)(2 μM; Medchemexpress), and Myc siRNA Fbxw7 (0.02 μM, Santa Cruz Biotechnology). The controls were cultured adult cochleae of the same genotype treated with vehicle (sterile water with 0.1% DMSO) plus ad-Atoh1. […]

[2] = tested on: adult wild-type mouse utricle; experiment: Neomycin damage of cultured adult mouse utricle; assay type: cell-based; settings: neomycin 4 mM for 5 days, vs untreated utricles
Description: Whole utricles were dissected from 4-week-old mice and cultured free-floating. Otoconia were removed using a gentle stream of phosphate-buffered saline (PBS) ejected from a 25G needle and syringe. Utricles were cultured in 1000 μL of media in untreated 24-well flat bottom plates. All cultures were maintained at 37° C. in 5% CO2/95% air.
Culture media consisted of Dulbecco's Modified Eagle's Medium/F12 (DMEM/F12, Invitrogen) with B27 and N2 supplement. Neomycin sulfate stock (10 mg/mL in 0.9% NaCl, from Sigma Aldrich) was diluted in culture media to 4 mM. Valproic acid (VPA) from Sigma was included at 2 mM, and siRNAs from Santa Cruz were included at 0.02 μM.

CC(/C=C/C(=O)NO)=C\[C@@H](C)C(=O)c1ccc(N(C)C)cc1 [TSA, (2E,4E,6R)-7-(4-(Dimethylamino)phenyl)-N-hydroxy-4,6-dimethyl-7-oxo-2,4-heptadienamide]
reprogramming and regeneration of hair cells with another HDAC inhibitor in the cocktail instead of VPA [1]: sufficient to induce reprogramming and efficient regeneration of hair cells

Neomycin sulfate
utricle hair cells (MYO7A) after neomycin [2]: decreased total numbers of utricle HC
utricle hair cells (MYO7A) after neomycin ([2]; listed as Neomycin): loss of hair cells

CCCC(CCC)C(=O)[O-].[Na+] [VPA, Sodium 2-propylpentanoate]
HC (MYO7A+) regeneration ([1]; cultured adult WT cochlea, treatment followed by Ad-Atoh1 infection (FIG. 7B)): did not lead to HC (MYO7A)

O=C(CCCCCCC(=O)Nc1ccccc1)NO [SAHA, N-Hydroxy-N′-phenyloctanediamide]
reprogramming and regeneration of hair cells with another HDAC inhibitor in the cocktail instead of VPA [1]: sufficient to induce reprogramming and efficient regeneration of hair cells

O=C(/C=C/c1cccc(S(=O)(=O)Nc2ccccc2)c1)NO [Belinostat, belinostat]
reprogramming and regeneration of hair cells with another HDAC inhibitor in the cocktail instead of VPA [1]: sufficient to induce reprogramming and efficient regeneration of hair cells
